In brackets after ≈: the same amount, converted by molar mass.
Legend:
ApoE Mice = experiment: Minimum efficacious exposure in ApoE mice; type: in vivo
[1] = Solubility measured at room temperature in water, acid and basic conditions (HPLC); type: physicochemical
Procedure: The solubility of 4-(3-{5-chloro-1-(diphenylmethyl)-2-[2-({[2-(trifluoromethyl)benzyl]sulfonyl}amino)ethyl]-1H-indol-3-yl}propyl)benzoic acid was measured at room temperature in water, acid and basic conditions.
The solubility of 4-(3-{5-chloro-1-(diphenylmethyl)-2-[2-({[2-(trifluoromethoxy)benzyl]sulfonyl}amino)ethyl]-1H-indol-3-yl}propyl)benzoic acid was measured at room temperature in water, acid and basic conditions.
The solubility of 4-(3-{5-chloro-1-(diphenylmethyl)-2-[2-({[2-fluoro-6-(trifluoromethyl)benzyl]sulfonyl}amino)ethyl]-1H-indol-3-yl}propyl)benzoic acid was measured at room temperature in water, acid and basic conditions.

[2] = Rat oral absorption/bioavailability after single oral dose of 25 mg/kg; type: in vivo, rats; settings: for oral exposure with addition of 2% Tween 80: 2% Tween 80/0.5% MC vehicle; for bioavailability: rat, in vivo, rats, read-out: estimated bioavailability; for bioavailability / oral absorption in rats: single oral dose of 25 mg/kg in 2% Tween/0.5% MC
Excerpt: (§1) Based on the animal data and solubility in pharmaceutical acceptable excipients, formulation development for first in human studies was undertaken based on this formulation.

[3] = Solubility in 2% Tween 80/0.5% methylcellulose vehicle; type: physicochemical; settings: for solubility: 2% Tween 80/0.5% methylcellulose vehicle, aqueous with cosolvent or surfactant or cyclodextrin, read-out: solubility in 2% Tween 80/0.5% methylcellulose (MC) vehicle
Excerpt: as §1

[4] = tested on: carrageenan-induced paw edema; experiment: Rat carrageenan-induced paw edema (CPE) study; type: in vivo
Procedure: Data from a rat carrageenan-induced paw edema (CPE) study indicated the minimum efficacious exposure of 4-(3-{5-chloro-1-(diphenylmethyl)-2-[2-({[2-(trifluoromethyl)benzyl]sulfonyl}amino)ethyl]-1H-indol-3-yl}propyl)benzoic acid was 1360 ng*hr/ml.

Structure (SMILES) | minimum efficacious exposure (ApoE Mice) [ng·h/mL] | solubility ([1]; water, acid and basic conditions, water, acid and basic conditions, below the HPLC detection limit, read-out: intrinsic solubility in all conditions) [µg/mL] | oral exposure with addition of 2% Tween 80 [2] | bioavailability [2] [%] | oral absorption in rats [2] | solubility enhancement by addition of 2% Tween 80 [3] [fold] | solubility in 2% Tween 80/0.5% methylcellulose (MC) vehicle [3] [µg/mL] | solubility [3] [µg/mL] | solubility ([1]; aqueous solution (water, acid and basic conditions), aqueous buffer, below the HPLC detection limit, read-out: intrinsic solubility of the free acid) [µg/mL] | solubility ([1]; aqueous solution (water, acid and basic conditions), aqueous buffer, read-out: solubility of the anion) [µg/mL] | minimum efficacious exposure [4] [ng·h/mL] | solubility ([1]; water, acid and basic conditions, aqueous buffer, below the HPLC detection limit, read-out: intrinsic solubility over the pH range of 1 to 11) [µg/mL]
O=C(O)c1ccc(CCCc2c(CCNS(=O)(=O)Cc3ccccc3OC(F)(F)F)n(C(c3ccccc3)c3ccccc3)c3ccc(Cl)cc23)cc1 [4-(3-{5-chloro-1-(diphenylmethyl)-2-[2-({[2-(trifluoromethoxy)benzyl]sulfonyl}amino)ethyl]-1H-indol-3-yl}propyl)benzoic acid] | 2800 | < 0.0212 | did not afford adequate oral exposure | ~1.8 | relatively low | 23.490 | 498 (≈ 654 µM) | 496 (≈ 652 µM) |  |  |  | 
O=C(O)c1ccc(CCCc2c(CCNS(=O)(=O)Cc3ccccc3C(F)(F)F)n(C(c3ccccc3)c3ccccc3)c3ccc(Cl)cc23)cc1 [4-(3-{5-chloro-1-(diphenylmethyl)-2-[2-({[2-(trifluoromethyl)benzyl]sulfonyl}amino)ethyl]-1H-indol-3-yl}propyl)benzoic acid] |  |  |  |  |  |  |  |  | < 0.031 | 0.11 (≈ 0.148 µM) | 1360 | 
O=C(O)c1ccc(CCCc2c(CCNS(=O)(=O)Cc3c(F)cccc3C(F)(F)F)n(C(c3ccccc3)c3ccccc3)c3ccc(Cl)cc23)cc1 [4-(3-{5-chloro-1-(diphenylmethyl)-2-[2-({[2-fluoro-6-(trifluoromethyl)benzyl]sulfonyl}amino)ethyl]-1H-indol-3-yl}propyl)benzoic acid] |  |  | did not afford adequate oral exposure | < 1 | relatively low |  |  | 115 (≈ 151 µM) |  |  |  | < 0.1

From patent US20100056520A1, “FORMULATIONS OF PHOSPHOLIPASE ENZYME INHIBITORS” (priority 2006, published 2010)
